Measurements as given in the supplement of paper PMC9663587.

Key:
[1] = test system: HS578T; assay: GRmax, 72 h; higher = less effect;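 also: breast cell lines in 384-well plates, nine doses across a 10^4 range, Dye Drop imaging of viable cells vs DMSO and time-zero plates, GR 0 means no net growth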
[2] = test system: SUM149; assay: GRmax, 72 h; higher = less effect;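 also: breast cell lines in 384-well plates, nine doses across a 10^4 range, Dye Drop imaging of viable cells vs DMSO and time-zero plates, GR 0 means no net growth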
[3] = test system: MDAMB453; assay: GRmax, 72 h; higher = less effect;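 also: breast cell lines in 384-well plates, nine doses across a 10^4 range, Dye Drop imaging of viable cells vs DMSO and time-zero plates, GR 0 means no net growth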
[4] = test system: SUM229PE; assay: GRmax, 72 h; higher = less effect;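 also: breast cell lines in 384-well plates, nine doses across a 10^4 range, Dye Drop imaging of viable cells vs DMSO and time-zero plates, GR 0 means no net growth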
[5] = test system: MGH312; assay: GRmax, 72 h; higher = less effect
[6] = test system: HCC1569; assay: GRmax, 72 h; higher = less effect
[7] = test system: PDX1258; assay: GRmax, 72 h; higher = less effect
[8] = test system: SUM52PE; assay: GRmax, 72 h; higher = less effect
[9] = test system: EVSAT; assay: area over the GR curve, 72 h; higher = more effect;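 also: Dye Drop or Deep Dye Drop imaging of viable cells in 384-well plates (Hoechst nuclei, LIVE/DEAD dye), nine half-log doses, GR normalized to DMSO controls and time-zero plates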
[10] = test system: ZR751; assay: area over the GR curve, 72 h; higher = more effect;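 also: Dye Drop or Deep Dye Drop imaging of viable cells in 384-well plates (Hoechst nuclei, LIVE/DEAD dye), nine half-log doses, GR normalized to DMSO controls and time-zero plates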
[11] = test system: SUM159; assay: area over the GR curve, 72 h; higher = more effect;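 also: Dye Drop or Deep Dye Drop imaging of viable cells in 384-well plates (Hoechst nuclei, LIVE/DEAD dye), nine half-log doses, GR normalized to DMSO controls and time-zero plates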
[12] = test system: MDAMB361; assay: area over the GR curve, 72 h; higher = more effect;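 also: Dye Drop or Deep Dye Drop imaging of viable cells in 384-well plates (Hoechst nuclei, LIVE/DEAD dye), nine half-log doses, GR normalized to DMSO controls and time-zero plates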
[13] = test system: HCC1937; assay: area over the GR curve, 72 h; higher = more effect

| SMILES | GRmax, 72 h [1] | GRmax, 72 h [2] | GRmax, 72 h [3] | GRmax, 72 h [4] | GRmax, 72 h [5] | GRmax, 72 h [6] | GRmax, 72 h [7] | GRmax, 72 h [8] | area over the GR curve [9] | area over the GR curve [10] | area over the GR curve [11] | area over the GR curve [12] | area over the GR curve [13] |
| --- | --- | --- | --- | --- | --- | --- | --- | --- | --- | --- | --- | --- | --- |
| COc1ccc2c(c1)[C@]1(C[C@H]1c1ccc3c(/C=C/c4ccc(CN5C[C@@H](C)O[C@@H](C)C5)cc4)n[nH]c3c1)C(=O)N2 | -0.103 GR | -0.0713 GR | 0.0847 GR | -0.0183 GR | -0.28 GR | -0.0697 GR | -0.0552 GR | 0.121 GR | 0.531 GR | 0.451 GR | 0.629 GR | 0.425 GR | 0.655 GR |
| COc1cccc(OCCCN)c1-c1cc(Nc2cnc(C#N)cn2)n[nH]1 | -0.359 GR | -0.453 GR | -0.513 GR | -0.112 GR | 0.887 GR | -0.0272 GR | -0.457 GR | -0.292 GR | 0.0022 GR | 0.3 GR | 0.533 GR | 0.828 GR | 0.55 GR |
| CC(=O)Nc1cccc(-n2c(=O)n(C3CC3)c(=O)c3c(Nc4ccc(I)cc4F)n(C)c(=O)c(C)c32)c1 (max 1 µM) | 0.193 GR | 0.237 GR | 0.0489 GR | 0.172 GR | 1.12 GR | 0.522 GR | 0.85 GR | 0.577 GR | 0.0263 GR | 0.328 GR | 0.347 GR | 0.219 GR | 0.138 GR |
| CCc1cnn2c(NCc3ccc[n+]([O-])c3)cc(N3CCCC[C@H]3CCO)nc12 (max 1 µM) | -0.239 GR | -0.566 GR | -0.257 GR | -0.21 GR | -0.951 GR | -0.245 GR | -0.617 GR | -0.33 GR | 0.0948 GR | 0.468 GR | 0.465 GR | 0.593 GR | 0.475 GR |
| CC(=O)c1c(C)c2cnc(Nc3ccc(N4CCNCC4)cn3)nc2n(C2CCCC2)c1=O (max 3.162 µM) | 0.305 GR | 0.485 GR | 0.0416 GR | 0.4 GR | 1.03 GR | 0.983 GR | 1.02 GR | 0.346 GR | 0.141 GR | 0.12 GR | 0.186 GR | 0.473 GR | -0.0629 GR |
| CCc1cncnc1N1CCN(Cc2nc3ccc(C(F)(F)F)cc3[nH]2)CC1 (max 10 µM) | 0.914 GR | 0.746 GR | 0.0482 GR | 0.743 GR | 0.311 GR | 0.7 GR | 0.775 GR | 0.446 GR | 0.0249 GR | -0.0587 GR | 0.0106 GR | 0.0684 GR | 0.039 GR |
| CCCCOc1c(C(=O)c2c(F)cc(C)cc2F)c[nH]c2nncc1-2 (max 10 µM) | -0.0288 GR | 0.0975 GR | 0.31 GR | 0.0454 GR | 0.0975 GR | 0.0899 GR | -0.232 GR | 0.299 GR | 0.322 GR | 0.209 GR | 0.466 GR | 0.56 GR | 0.917 GR |
| CCN1CCN(Cc2ccc(Nc3ncc(F)c(-c4cc(F)c5nc(C)n(C(C)C)c5c4)n3)nc2)CC1 (max 10 µM) | -0.583 GR | 0.0962 GR | -0.765 GR | 0.146 GR | -0.461 GR | 0.116 GR | -0.331 GR | 0.332 GR | 0.324 GR | 0.429 GR | 0.372 GR | 0.828 GR | 0.102 GR |
| CNc1nc(-c2ccc3c(N)n[nH]c3c2)cc(N2C[C@@H](C(=O)NC3CCCCC3)CC[C@H]2C)n1 (max 10 µM) | 0.538 GR | 0.698 GR | 0.147 GR | 0.696 GR | -0.599 GR | 0.673 GR | 0.644 GR | 0.386 GR | 0.257 GR | 0.257 GR | 0.106 GR | 0.636 GR | 0.146 GR |
| CO[C@@H](C)Cn1c(=O)n(C)c2cnc3ccc(-c4cncc(C(C)(C)O)c4)cc3c21 (max 10 µM) | 0.0776 GR | -0.0342 GR | -0.578 GR | 0.0211 GR | -0.795 GR | -0.0783 GR | -0.344 GR | -0.125 GR | 0.795 GR | 0.691 GR | 0.727 GR | 1.47 GR | 0.485 GR |
| Cc1nn(C)c(COc2ccc(N3CCN(S(=O)(=O)N(C)C)CC3)cc2)c1-c1cccc2c(CCCOc3cccc4ccccc34)c(C(=O)O)n(CCN3CCOCC3)c12 (max 10 µM) | 0.942 GR | 0.391 GR | 0.933 GR | 0.547 GR | 0.775 GR | 0.928 GR | 0.919 GR | 0.373 GR | 0.0097 GR | -0.0518 GR | -0.0068 GR | -0.0172 GR | 0.006 GR |
| CN(C)CC[C@H](CSc1ccccc1)Nc1ccc(S(=O)(=O)NC(=O)c2ccc(N3CCN(Cc4ccccc4-c4ccc(Cl)cc4)CC3)cc2)cc1[N+](=O)[O-] [ABT-737] (max 10 µM) | 0.775 GR | -0.28 GR | 0.152 GR | 0.418 GR | 0.0409 GR | -0.406 GR | 0.758 GR | 0.441 GR | 0.0258 GR | 0.0133 GR | 0.0034 GR | -0.0339 GR | 0.0829 GR |
| C=CCn1c(=O)c2cnc(Nc3ccc(N4CCN(C)CC4)cc3)nc2n1-c1cccc(C(C)(C)O)n1 [AZD1775] (max 10 µM) | -0.394 GR | -0.497 GR | -0.249 GR | -0.259 GR | -0.873 GR | -0.167 GR | -0.46 GR | -0.226 GR | 0.228 GR | 0.143 GR | 0.253 GR | 0.897 GR | 0.707 GR |
| CNC(=O)c1cccc(-c2ccc3c(N4CCOC[C@@H]4C)nc(N4CCOC[C@@H]4C)nc3n2)c1 [AZD2014] (max 10 µM) | 0.273 GR | 0.418 GR | 0.134 GR | 0.338 GR | -0.693 GR | 0.0746 GR | -0.118 GR | -0.0804 GR | 0.75 GR | 0.8 GR | 0.481 GR | 1.2 GR | 0.52 GR |
| NC1(C(=O)N[C@@H](CCO)c2ccc(Cl)cc2)CCN(c2nc[nH]c3nccc2-3)CC1 [AZD5363] (max 10 µM) | 0.349 GR | 0.34 GR | 0.23 GR | 0.516 GR | -0.905 GR | 0.0764 GR | 0.321 GR | 0.18 GR | 0.728 GR | 0.0911 GR | 0.177 GR | 0.367 GR | 0.353 GR |
